Experimental data from patent EP0961591B1, “METHOD TO ENHANCE TISSUE AC[…] RADIOLABELED COMPOUNDS” (BOARD OF SUPERVISORS OF LOUISIANA STATE UNIVERSITY AND …, priority 1997, dated 1999).
Like-named read-outs stand apart in the source and are kept apart here.

How the values were obtained:
[1] = system: tumor in the left side of the neck
Experimental: During and after each administration of the last eight doses, a tumor in the left side of the neck was monitored for radioligand uptake with an ion chamber survey meter, a Victoreen 450P ion chamber, which measures external gamma dose rates. Administration of the initial seven doses were by bolus injection. The last three doses were delivered by infusion with various activities of radioligand.
The external gamma dose rates from radioligand accumulation in the neck tumor area were measured immediately and 24 hr after injection.
Four months after the final bolus dose, the first dose by infusion ("Infusion 1") was administered. A dose equivalent to the previous bolus dose (175.9 mCi) was given, but the radioligand was administered by infusion over 72 hr at a constant rate of 2.5 mCi/hr.
One month later, in "Infusion 2," the total dose was increased to 389.2 mCi. By infusion, 189.8 mCi of the radioligand was given over the first 24 hr, 108.6 mCi over the second 24 hr, and 90.8 mCi over the third 24 hr. For each 24 hr period, the infusion rate was kept constant.
One month later, a third dose was administered by infusion ("Infusion 3"). A dose of 301 mCi was infused the first 24 hr period. In two subsequent 24 hr periods, 25 and 21 mCi were infused.

SK-R2 = experiment: Peptide binding and internalization assay; set-up: species or system human
Experimental: (§1) Cell lines were obtained from the ATCC (IMR-32 and SKNSH) or from Ohio State University (Columbus, Ohio) (SK-R2). All cells lines were maintained in 5% CO2 at 37°C in media defined by the suppliers of the cell lines.
(§2) Cells were harvested, counted with a hemocytometer, and resuspended in binding buffer (Minimum Essential Medium (MEM), 10 mM Hepes, 0.01% BSA). A standard assay used 500,000 cells in 1 ml of binding buffer. Radioactive ligand alone (500,000 cpm), or in combination with at least 1,000-fold molar excess (10^-6 M) non-radioactive compound (to calculate specific binding), was added to a final volume of 1 ml. At the termination of the experiment, the incubation medium was removed, the cells were rinsed twice with Hanks balanced salt solution (HBSS), and the radioactivity in the cells determined using a gamma counter. This level of radioactivity represents total binding, which includes both membrane-bound and internalized fractions. Specific binding was determined by calculating the difference in the levels of measured radioactivity without the unlabeled competitor minus the radioactivity with the unlabeled competitor.
(§3) To differentiate between membrane and intracellular binding, cells were subsequently incubated for 10 min at 4°C with acidified HBSS (pH=4-5), rinsed in HBSS, and the radioactivity again determined using the gamma counter. Since the acid wash preferentially released the radioactive ligand from the external surface of the cell, remaining radioactivity was attributed to internalized fractions. Membrane-associated binding was then calculated as the difference between the total binding and internalized fractions.
(§4) The assay methods were as described in Example 2.

IMR-32 = experiment: Peptide binding and internalization assay; set-up: species or system human
Experimental: as §1, §2, §3
The times for ligand binding and internalization were analyzed using the standard assay methods described above. […] The first series of experiments used IMR-32 cells that were exposed to a radioligand for varying periods of time (up to 72 hr). The incubation media was replaced at least every 48 hr.
as §4

[2] = system: human angiogenic vascular tissue; experiment: Human Placental Vein Angiogenesis Model; format: cell-based; settings: 50 µCi/mL (or equivalent amounts), 14 days
From the text: Watson et al., "Up-Regulation of Somatostatin Receptor Subtype 2 (SST-2) mRNA Occurs During the Transformation of Human Endothelium to the Angiogenic Phenotype," Paper Presented at the 12th International Symposium on Regulatory Peptides, Copenhagen, Denmark, September 1996; J.C. Watson et al., "SST-2 Gene Expression Appears During Human Angiogenesis," Regulatory Peptides, vol. 64, p. 206 (Abstract) (1996); and J.C. Watson et al., "Breast Cancer Increases Initiation of Angiogenesis Without Accelerating Neovessel Growth Rate," Surgery, vol. 122, pp. 508-14 (1997). Human placental veins were cut into discs of 2 mm diameter and were incorporated into a 0.3% fibrinogen gel. This gel was then overlaid with tissue culture media containing 10-20 % fetal calf serum (FCS). Under normal conditions, endothelial cords will begin to sprout from the transected cut edge of the vein discs within six days.
These vein discs were placed into wells of three separate culture plates. One culture plate, the control sample, was allowed to grow without treatment. […] The discs were then incubated for fourteen days. […]
Using a digital image analyzer, the mean area of the sprouting tissue surrounding the discs was measured.
To measure the growth rate of angiogenic vascular tissue, every two days during the 14-day incubation period, the length of sprouts were measured. […]

SKNSH = experiment: Peptide binding and internalization assay; set-up: species or system human
From the text: The cells included: (1) IMR-32 (ATCC No. CCL-127), a human neuroblastoma cell line with a very high expression level of somatostatin receptors (SST), predominantly SST-2; (2) SKNSH (ATCC No. HTB-11), a human neuroblastoma bone marrow metastatic cell that lacks somatostatin receptors as defined by either a binding assay or reverse transcriptase-polymerase chain reaction (RTPCR); and (3) SK-R2, a SKNSH-derived cell line transfected with the gene for the SST-2 receptor. The IMR-32 and the SK-R2 cells express somatostatin receptors type 2 (SST-2). […] Cell lines were obtained from the ATCC (IMR-32 and SKNSH) or from Ohio State University (Columbus, Ohio) (SK-R2). All cells lines were maintained in 5% CO2 at 37°C in media defined by the suppliers of the cell lines.
as §2, §3, §4

[3] = SKR-2, competitor octreotide acetate
[4] = IMR-32, competitor octreotide acetate
[5] = IMR-32 cells exposed to radioligand up to 72 hr

Substance: (^111In-DTPA-D-Phe^1)-octreotide [^111In-pentetreotide]
- infusion ratio relative to the bolus ratio ([1]; Infusion 1): 3 fold
- infusion ratio relative to the bolus ratio ([1]; Infusion 2): 4 fold
- infusion ratio relative to the bolus ratio ([1]; Infusion 3): 5 fold
- highest ratio relative to the highest ratio from the bolus injection ([1]; Infusion Dose 1, after the first 24 hr infusion): almost five times higher
- tumor foci identifiable by gamma scintigraphy ([1]; Infusion Dose 3, gamma camera scintigraphy): still identifiable by gamma scintigraphy thirteen days after completion of the last infusion dose
- binding associated with the plasma membrane (SK-R2; SK-R2 cell line): 95%
- Total Binding (CPM ± SD), MEMBRANE (SK-R2; SKR-2, 1 CPM/cell): 33,655 ± 2,728 CPM
- Total Binding (CPM ± SD), TOTAL (SK-R2; SKR-2, 1 CPM/cell): 36,261 ± 2,085 CPM
- Total Binding (CPM ± SD), INTRACELLULAR (SK-R2; SKR-2, 1 CPM/cell, after acid wash): 2,607 ± 672 CPM
- Kd (SK-R2; SKR-2, Scatchard plot analysis, read-out: Kd (apparent dissociation constant)): 1 nM
- Specific Binding (CPM), INTRACELLULAR (SK-R2; [3]): 1,792 CPM
- Specific Binding (CPM), MEMBRANE (SK-R2; [3]): 33,683 CPM
- Specific Binding (CPM), TOTAL (SK-R2; [3]): 35,475 CPM
- Total Binding (CPM ± SD), MEMBRANE (IMR-32; IMR-32, 1 CPM/cell): 2,373 ± 417 CPM
- Total Binding (CPM ± SD), TOTAL (IMR-32; IMR-32, 1 CPM/cell): 4,780 ± 928 CPM
- Total Binding (CPM ± SD), INTRACELLULAR (IMR-32; IMR-32, 1 CPM/cell, after acid wash): 2,408 ± 51 CPM
- Kd (IMR-32; IMR-32, Scatchard plot analysis, read-out: Kd (apparent dissociation constant)): 4 nM
- Specific Binding (CPM), INTRACELLULAR (IMR-32; [4]): 1.536 CPM
- Specific Binding (CPM), MEMBRANE (IMR-32; [4]): 2,372 CPM
- Specific Binding (CPM), TOTAL (IMR-32; [4]): 3,908 CPM
- fractions of total radioactivity incorporated into the cell (IMR-32; [5]): 40-75%
- time of maximal binding (IMR-32; [5]): 48 to 72 h
- % initiation of angiogenic growth [2]: lowest % initiation
- vessel area ([2]; digital image analyzer): the least area of new growth
- Total Binding (CPM ± SD), MEMBRANE (SKNSH; 1 CPM/cell): 87 ± 114 CPM
- Total Binding (CPM ± SD), TOTAL (SKNSH; 1 CPM/cell): 861 ± 30 CPM
- Total Binding (CPM ± SD), INTRACELLULAR (SKNSH; 1 CPM/cell, after acid wash): 775 ± 107 CPM
- Specific Binding (CPM), INTRACELLULAR (SKNSH; competitor octreotide acetate): 0 CPM
- Specific Binding (CPM), MEMBRANE (SKNSH; competitor octreotide acetate): 0 CPM
